Measurements reported in US20060241178A1, “Compositions and methods for treating lung cancer” (priority 2002, published 2006).

Legend:
JNK 1 and 2 = experiment: Western blot of lung total proteins: JNK phosphorylation; format: in vivo, A/J mice; settings: lung tissue 21 days after B(a)P
A549 cells [1] = experiment: Cell cycle phase-specific DNA strand breaks (TUNEL) in A549 cells; format: cell-based, human
Experimental: Detection of cell cycle phase-specific DNA strand breaks (“TUNEL”): A549 cells were fixed with 1% formaldehyde for 15 min and then permabilized by post-fixation in 70% ethanol. The presence of in situ DNA strand breaks, a characteristic feature of apoptosis was detected by labeling them with a fluorochrome-conjugated nucleotide in the reaction catalyzed by the terminal deoxynucleotidyl transferase; cellular DNA was counterstained with DAPI. The kit provided by Phoenix Flow Systems (San Diego, Calif.) was used in this assay. This method is also described in detail elsewhere (Gorczyca et al., Internat J. Oncol. 1992, 1:639-648). Green and red fluorescence of cells probed for DNA strand breaks and DNA content was measured using a FACScan flow cytometer (Becton Dickinson, San Jose, Calif.) with standard settings of green (strand breaks) and red (DNA) fluorescence detection. To calculate the percentage of apoptotic cells in respective phases of cell cycle, DNA content frequency histograms were deconvoluted using CELLQuest software.
Apoptosis induced by PEITC-NAC occurs predominantly in dividing cells. […] DNA strand breaks during apoptosis was detected by end-labeling, which was combined with analysis of the cellular DNA content. […]

[2] = tested on: alveolar epithelium cells of lung; experiment: In situ end-labeling (ISEL/TUNEL) of apoptosis in lung sections; format: in vivo, A/J mice
A549 cells [3] = experiment: Flow cytometry cell cycle analysis / survival of A549 cells; format: cell-based, human
Experimental: (§1) Cell Lines: The human lung adenocarcinoma cell line A549 was obtained from the American Type Culture Collection (ATCC) (Bethesda, Md.). […] Cells were grown at 37° C. with 5% CO2.
(§2) Reagents: The PEITC was obtained from Aldrich (Milwaukee, Wis.) and its N-acetylcysteine conjugate was synthesized in house by the Organic Synthesis Facility using the method described previously (Kassahun et al., Chem Res Toxicol 1997, 10(11):1228-33). Unless specified otherwise, the A549 cells were treated with 10 or 25 μM of PEITC-NAC. TPA (12-O-tetradecanoylphorbol-13-acetate) was purchased from Sigma (St. Louis, Mo.).
Cell cycle analysis: A549 cells were harvested following 16 and 24 h treatment with various concentrations of PEITC-NAC by fixation in 70% ethanol. Cellular DNA was determined following staining with 1 μg/ml of 4,6-diamidino-2-ephynylindole (DAPI, Molecular Probes, Eugene, Oreg.) dissolved in PBS. Cellular blue fluorescence was measured using the Elite ESP flow cytometer/cell sorter (Coulter, Miami, Fla.) following excitation with a Ni/Cad UV light emitting laser. The data were collected and DNA histograms were deconvoluted using Multicycle software (Phoenix Flow Systems, San Diego, Calif.).

[4] = tested on: A549/control-vector cells; experiment: Apoptosis in A549/control-vector transfectants (morphology, DNA fragmentation, annexin V, PARP Western blot); format: cell-based, human; settings: 25 μM
A549/c-jun cells = experiment: Apoptosis in A549/c-jun transfectants (morphology, DNA fragmentation, annexin V, PARP Western blot); format: cell-based, human; settings: 25 μM
[5] = tested on: AP-1 binding activity in A549 cells; experiment: EMSA of AP-1 binding activity in A549 cells; format: cell-based, human
Experimental: as §1, §2
Electrophoretic Mobility Shift Assay (EMSA): Double-stranded oligonucleotides containing the consensus-binding site for AP-1 were purchased commercially (Santa Cruz Biotech). The oligos were labeled with γ-^32P-ATP (6000 Ci/mmol, Armeshem Pharmacia Biotech. Inc Piscataway, N.J.) using polynucleotide kinase (Promega, Madison, Wis.) according to standard procedures. The labeled DNA was incubated with 5 μg of total proteins (as specified in the Results section) for 10 min at room temperature, in the presence of 1 μg of poly d(I)-d(C) oligomer (Roche Molecular Biochemicals, Indianapolis, Ind.) and DNA-binding buffer as described previously (Yang et al., Cell Growth Differ 1993, 4(7):595-602). The complexes were then separated on a 7.5% polyacrylamide gel and autoradiographed.
Proteins Isolation: Cells were incubated in a 37° C. with 5% CO2, followed by mock or treatments specified in the results section. Total proteins were then isolated using RIPA buffer. The protease inhibitors aprotinin (1 μg/ml), leupeptin (1 μg/ml), pepstatin (1 μg/ml), phenylmethylsulfonyl fluoride (0.1 mM) and the phosphatase inhibitor Na3VO4 (1 mM), NaF (1 mM) were added to all buffers. The protein concentrations were determined using the Coomassie Plus Protein Assay Reagent (Pierce, Rockford, Ill.), and aliquots of the proteins were stored at −80° C.

CC(=O)N[C@@H](CSC(=S)NCCc1ccccc1)C(=O)O [PEITC-NAC, N-acetylcysteine Conjugate of phenethyl isothiocyanate]
JNK 1 (p46) phosphorylation level (JNK 1 and 2): increase
JNK 2 (p54) phosphorylation (JNK 1 and 2): only slightly induced
cell cycle distribution (A549 cells [1]; 25 μM, 16 h): a substantial portion of the cells accumulate in G2M phase
apoptotic cells by DNA strand break labeling (A549 cells [1]; 50 μM, 24 h): a distinct population of apoptotic cells
increase in apoptosis, non-tumorous lung tissue ([2]; after 140 days): 2.3 fold
apoptotic index, fold elevation ([2]; lung tissue at 84 days, before tumors appeared): approximately 2 fold
cells undergoing apoptosis (sub-G1 peak) (A549 cells [3]; 10 μM for 24 h): 4.5%
cell survival (A549 cells [3]; 100 μM, 24 h): no lung cells appear to survive
PARP 89 kD cleavage fragment ([4]; 3 h): a very light 89 kD cleavage fragment
PARP protein ([4]; 24 h): maintained a significant levels of intact PARP protein
cell survival (morphology, DNA fragmentation) ([4]; 24 h): the majority of control-vector transfectants were still alive
PARP 89 kD cleavage fragment (A549/c-jun cells; 3 h): the most evident cleavage
PARP protein (A549/c-jun cells; 24 h): maintained a significant levels of intact PARP protein
apoptosis compared with control-vector transfected cells (A549/c-jun cells; 24 h): enhanced apoptosis
earliest appearance of AP-1 activation ([5]; 10 μM): 30 min
concentration of peak AP-1 binding activity ([5]; 24 h treatment): 10 µM
lowest concentration stimulating AP-1 activation ([5]; 24 h treatment): 1 µM
